Test results as given in patent publication US7678791B2, “Nitroheteroaryl-containing rifamycin derivatives” (Cumbre IP Ventures, L.P., priority 2006, dated 2010).
In brackets after ≈: the same amount, converted by molar mass. Like-named read-outs stand apart in the source and are kept apart here.

Experiments:
Type in all cases: cell-based
[1] = tested on: Staphylococcus aureus ATCC 29213; test: MIC by microbroth dilution, S. aureus
Text: (§1) Methods for dilution antimicrobial susceptibility tests for bacteria that grow aerobically, 5th ed. M7-A5. National Committee for Clinical Laboratory Standards, Wayne, Pa.).

[2] = tested on: Helicobacter pylori CB1572 (Rif-resistant, rpoB L525I, D530N); test: microbe, parasite or virus in culture; conditions: read-out: MIC H. pylori CB1572 (Rif-resistant)
Text: as §1

[3] = tested on: Bacteroides fragilis CB-1621; test: MIC, B. fragilis; conditions: CB1621
[4] = tested on: Escherichia coli ATCC 25922; test: MIC by microbroth dilution, E. coli
Text: as §1

[5] = tested on: Haemophilus influenzae ATCC 10211; test: MIC by microbroth dilution, H. influenzae
Text: as §1

[6] = tested on: Helicobacter pylori ATCC 700392; test: MIC by agar dilution, H. pylori
Text: as §1

[7] = tested on: Mycobacterium tuberculosis H37Rv; test: MIC, M. tuberculosis
[8] = tested on: Clostridium difficile CB-1620; test: MIC, C. difficile; conditions: Clostridioides difficile, CB1620
[9] = ATCC29213, read-out: MIC S. aureus ATCC# 29213
[10] = ATCC25922, read-out: MIC E. coli ATCC# 25922
[11] = ATCC700392, read-out: MIC H. pylori ATCC# 700392

SMILES	MIC [1, 9] [µg/mL]	MIC [2] [µg/mL]	MIC [3] [µg/mL]	MIC [4, 10] [µg/mL]	MIC ([5]; ATCC10211, read-out: MIC H. influenzae ATCC# 10211) [µg/mL]	MIC [6, 11] [µg/mL]	MIC [7] [µg/mL]	MIC [8] [µg/mL]	MIC ([1]; ATCC29213, microbroth dilution, read-out: MIC S. aureus ATCC# 29213) [µg/mL]	MIC ([4]; ATCC25922, microbroth dilution, read-out: MIC E. coli ATCC# 25922) [µg/mL]	MIC ([5]; ATCC10211, microbroth dilution, read-out: MIC H. influenzae ATCC# 10211) [µg/mL]	MIC ([6]; ATCC700392, agar dilution, read-out: MIC H. pylori ATCC# 700392) [µg/mL]
CO[C@H]1/C=C/O[C@@]2(C)Oc3c(C)c(O)c4c(c3C2=O)C2=NC3(CCN(CCn5c([N+](=O)[O-])cnc5C)CC3)NC2=C(NC(=O)/C(C)=C\C=C\[C@H](C)[C@H](O)[C@@H](C)[C@@H](O)[C@@H](C)[C@H](OC(C)=O)[C@@H]1C)C4=O [Example 1, 4-Deoxy-3,4-[2-spiro-[1-[2-(2-methyl-5-nitro-imidazol-1-yl)ethyl]-piperidin-4-yl]]-(1H)-imidazo-(2,5-dihydro)rifamycin S]	0.03 (≈ 0.0318 µM)	0.5 (≈ 0.53 µM)	0.03 (≈ 0.0318 µM)	16 (≈ 16.9 µM)	1 (≈ 1.06 µM)	≤ 0.03	0.016 (≈ 0.0169 µM)	0.00025 (≈ 0.000265 µM)	–	–	–	–
CO[C@H]1/C=C/O[C@@]2(C)Oc3c(C)c(O)c4c(O)c(c(/C=N/N5CCN(CCn6c([N+](=O)[O-])cnc6C)CC5)c(O)c4c3C2=O)NC(=O)/C(C)=C\C=C\[C@H](C)[C@H](O)[C@@H](C)[C@@H](O)[C@@H](C)[C@H](OC(C)=O)[C@@H]1C [Example 3, 3-[[[4-[2-(2-methyl-5-nitro-imidazol-1-yl)ethyl]-1-piperazinyl]imino]methyl]rifamycin SV]	0.03 (≈ 0.0312 µM)	2 (≈ 2.08 µM)	–	–	–	0.5 (≈ 0.52 µM)	–	–	–	–	–	–
CO[C@H]1/C=C/O[C@@]2(C)Oc3c(C)c(O)c4c(=O)c(c5oc6cc(N7CCN(CCn8c([N+](=O)[O-])cnc8C)CC7)cc(O)c6nc-5c4c3C2=O)NC(=O)/C(C)=C\C=C\[C@H](C)[C@H](O)[C@@H](C)[C@@H](O)[C@@H](C)[C@H](OC(C)=O)[C@@H]1C [Example 4, 3′-Hydroxy-5′-[4-[2-(2-methyl-5-nitro-imidazol-1-yl)ethyl]-1-piperazinyl]benzoxazinorifamycin]	< 0.004	1 (≈ 0.963 µM)	–	> 8	–	≤ 0.03	–	–	–	–	–	–
CO[C@H]1/C=C/O[C@@]2(C)Oc3c(C)c(O)c4c(O)c(c(/C=N/N5CCN(C)CC5)c(O)c4c3C2=O)NC(=O)/C(C)=C\C=C\[C@H](C)[C@H](O)[C@@H](C)[C@@H](O)[C@@H](C)[C@H](OC(C)=O)[C@@H]1C [rifampin, reference compound]	–	> 32	0.06 (≈ 0.0729 µM)	–	–	–	–	0.001 (≈ 0.00122 µM)	0.008 (≈ 0.00972 µM)	8 (≈ 9.72 µM)	0.24 (≈ 0.292 µM)	0.12 (≈ 0.146 µM)
